Key:
[1] = system: neutral lipid in and on Bruch's membrane [ブルッフ膜内及びブルッフ膜上の中性脂質]; assay: Oil red O (ORO) staining of neutral lipid in and on Bruch's membrane, aged macaques with naturally occurring age-related maculopathy; format: in vivo, cynomolgus macaque (Macaca fascicularis); conditions: injected eye; 6 monthly intravitreal injections, total 625 μg; after 6 months; vs scrambled L-4F
[2] = system: esterified cholesterol in Bruch's membrane [ブルッフ膜内のエステル型コレステロール]; assay: Filipin fluorescence of esterified cholesterol in Bruch's membrane, aged macaques; format: in vivo, cynomolgus macaque (Macaca fascicularis); conditions: injected eye; 6 monthly intravitreal injections, total 625 μg; vs scrambled L-4F
[3] = system: membrane attack complex (MAC, C5b-9) [膜侵襲複合体(MAC、C5b−9)]; assay: Immunohistochemistry of membrane attack complex in Bruch's membrane and choriocapillaris, aged macaques; format: in vivo, cynomolgus macaque (Macaca fascicularis); conditions: injected eye; 6 monthly intravitreal injections, total 625 μg; vs scrambled L-4F
[4] = system: complement factor D (CFD) [補体因子D(CFD)]; assay: Immunohistochemistry of complement factor D, aged macaques; format: in vivo, cynomolgus macaque (Macaca fascicularis); conditions: injected eye; 6 monthly intravitreal injections, total 625 μg; vs scrambled L-4F
Bruch's membrane [ブルッフ膜] = assay: Bruch's membrane thickness and integrity by electron microscopy, aged macaques; format: in vivo, cynomolgus macaque (Macaca fascicularis)
[5] = system: fellow non-injected eye [もう片方の非注射側の眼]; assay: Effect in the fellow non-injected eye (staining and thickness, figures 2 to 6), aged macaques; format: in vivo, cynomolgus macaque (Macaca fascicularis); conditions: after 6 monthly intravitreal injections (figures 2 to 6)
[6] = Tolerability and adverse events of intravitreal injection, aged macaques; format: in vivo, cynomolgus macaque (Macaca fascicularis); conditions: all macaques; 6 monthly intravitreal injections
[7] = system: high-sensitivity C-reactive protein (hsCRP) [高感度C−反応性タンパク質(hsCRP)]; assay: Blood level of high-sensitivity C-reactive protein, aged macaques; format: in vivo, cynomolgus macaque (Macaca fascicularis); conditions: 6 monthly intravitreal injections
[8] = estimated; cited from earlier work
[9] = system: geographic atrophy [地図状萎縮]; conditions: 10 mg intravitreal once a month, 18 months, cited from earlier work

Substance: Ac−DWFKAFYDKVAEKFKEAF−NH2 (Ac-DWFKAFYDKVAEKFKEAF-NH2) [L−4F]
- reduction of lipid deposits from Bruch's membrane (oil red O staining) compared with placebo-injected eyes [1]: ~56%
- reduction of esterified cholesterol in Bruch's membrane (filipin fluorescence, semiquantitative) compared with placebo-injected eyes [2]: ~68%
- reduction of MAC (C5b-9) level in Bruch's membrane and choriocapillaris compared with eyes injected with scrambled peptide [3]: ~58%
- reduction of complement factor D level compared with eyes injected with scrambled peptide [4]: ~41%
- thickness of Bruch's membrane (Bruch's membrane [ブルッフ膜]; L-4F-injected eye, temporal outer macula, post mortem, printed 1.31μm±SE0.11, placebo (scrambled L-4F) 1.73μm±SE0.02): 1.31 μm
- Bruch's membrane integrity (Bruch's membrane [ブルッフ膜]; after removal of lipid deposits, confirmed by electron microscopy): BrMの完全性が回復し
- reduction of Bruch's membrane thickness compared with placebo-injected eyes (Bruch's membrane [ブルッフ膜]; injected eye, temporal outer macula, vs scrambled L-4F): ~24%
- effect on the fellow non-injected eye relative to the injected eye [5]: 同様の効果を有していた
- tolerability [6]: 十分耐性があり
- change in hsCRP blood level compared with the day before the first injection [7]: hsCRPの血中レベルを増加させなかった

Substance: アフリベルセプト: soluble fusion protein comprising extracellular domains of VEGFR
- intravitreal half-life [8]: ~216 h

Substance: ベバシズマブ: anti-VEGF antibody or fragment
- intravitreal half-life [8]: ~235 h

Substance: ラニビズマブ: anti-VEGF antibody or fragment
- intravitreal half-life [8]: ~170 h

Substance: ランパリズマブ: antigen-binding fragment (Fab) of a humanized monoclonal antibody targeting complement factor D
- reduction of geographic atrophy area, CFI biomarker-positive subgroup ([9]; CFI biomarker-positive patients): ~44%
- reduction of geographic atrophy area in the injected eye compared with placebo patients ([9]; one eye): ~20%

Source: JP2020514407A, “アポリポプロテイン模倣物を用いる加齢黄斑変性と他の眼疾患の治療” (MacRegen Inc, priority 2017, dated 2018)
